Patent US9719127B2, “Dual inducible vectors and cell lines” (priority 2012, dated 2017)

Tests used:
[1] = tested on: CCR5-using HIV-1 isolate (live, replication-competent JR-CSF)
X4-tropic viruses = assay: GGR cell G.Luc signal with X4-tropic viruses; assay type: cell-based, HIV; conditions: GGR cells, low endogenous CXCR4

Maraviroc
Gaussia luciferase signal of CCR5-mediated infection in the presence of maraviroc [1]: reproducibly reduced | G.Luc signal with X4-tropic viruses under maraviroc (X4-tropic viruses): resistant to maraviroc inhibition
